The values that follow come from the RepoRT retention time repository (doi:10.1021/acs.analchem.1c00972).

The nature of data set [1]: RP, Waters ACQUITY UPLC BEH C18, 100 × 1 mm, 1.7 µm, 50 °C, 0.3 mL/min, estimated dead time 0.17 min; A: water + 10 mM ammonium bicarbonate; B: 10% water + 90% methanol + 10 mM ammonium bicarbonate; gradient (min/%B) 0/0 15/100 21/100 22/0 30/0. Conditions: stereoisomer not certain.
Data set [2] can be described thus: RP, Waters ACQUITY UPLC BEH C18, 100 × 1 mm, 1.7 µm, 50 °C, 0.3 mL/min, estimated dead time 0.17 min; A: water + 0.1% formic acid + 20 mM ammonium formate; B: methanol + 0.1% formic acid + 20 mM ammonium formate; gradient (min/%B) 0/0 15/100 21/100 22/0 30/0. Conditions: stereoisomer not certain.

In the case of `OCCc1ccccn1` [2-(2-Pyridyl)ethanol], the LC retention time in data set [1] is 6.8 min.
Still for that read-out and setting: then `CCC(C)(NC(=O)c1cc(Cl)c(C)c(Cl)c1)C(=O)CCl` (stereo not drawn) [Zoxamide], with 16 min; and `COc1cccc(C2(O)CCCCC2CN(C)C)c1` (stereo not drawn) [Tramadol], with 14 min.
The same measure, in the same setting: the value for `Cc1cc(C)nc(Nc2ccccc2)n1` [Pyrimethanil] was 14.2 min.
`COCC(C)N(C(=O)CCl)c1c(C)csc1C` (stereo not drawn) [Dimethenamid]: the LC retention time in data set [1] was 14.4 min.
Still for that read-out and setting: then `COP(=O)(OC)OC(C)=CC(=O)N(C)C` [Dicrotophos], with 8.69 min; and `Nc1cccc(Cl)c1` [3-Chloroaniline], with 10.6 min.
The same measure, in the same setting: the value for `CC(=O)c1cc2c(cc1C)C(C)(C)C(C)CC2(C)C` (stereo not drawn) [Tonalide] was 18.2 min; that for `CCOc1ccc(NC(C)=O)cc1` [Phenacetin] was 9.9 min; that for `CN(C)C(=O)Nc1ccc(Cl)cc1` [Monuron] was 11.3 min.
Same read-out and setting: then `CC(C)Nc1nc(N)nc(Cl)n1` [Desethylatrazine], with 9.95 min.
As to `COc1ccc(S(=O)(=O)O)cc1` [4-Methoxybenzenesulfonic acid], the LC retention time in data set [1] is 4.27 min.
Still for that read-out and setting: then `COc1cc([N+](=O)[O-])ccc1O` [4-Nitroguaiacol], with 4.61 min; and `CCNc1nc(N)nc(Cl)n1` [Desisopropylatrazine], with 8.17 min.
As to `O=c1cc(-c2ccccc2)c2c(O)cc(O)cc2o1` [5,7-Dihydroxy-4-phenylcoumarin], in data set [2], the LC retention time was 12.1 min.
On the same count and under the same terms, then `O=C(O)c1ccccc1Nc1cccc(C(F)(F)F)c1` [Flufenamic acid], with 16.2 min.
The same measure, in the same setting: the value for `O=C1NC(=O)c2ccccc21` [phthalimide] was 7.8 min; that for `CCOC(=O)C(SP(=S)(OC)OC)c1ccccc1` (stereo not drawn) [Phenthoate] was 15.4 min; that for `CC(=NC#N)N(C)Cc1ccc(Cl)nc1` [Acetamiprid] was 9.33 min.
Same read-out and setting: the value for `CC(C)(c1ccccc1)c1cc(-n2nc3ccccc3n2)c(O)c(C(C)(C)c2ccccc2)c1` [UV-234] was 16.6 min; that for `COc1cc(OC)n2nc(NS(=O)(=O)c3c(C(F)(F)F)ccnc3OC)nc2n1` [Pyroxsulam] was 11.7 min.
As to `CCS(=O)(=O)CCSP(=O)(OC)OC` [Demeton-S-methyl-sulfone], in data set [2], the LC retention time was 7.78 min.
On the same count and under the same terms, then `Cc1ccc(N)cc1O` [5-Amino-o-cresol], with 3.69 min; and `CC(C)=CCc1c(O)cc(O)c2c1OC(c1ccc(O)cc1)CC2=O` (stereo not drawn) [8-Prenylnaringenin], with 14.5 min; and `CC(O)C(NC(=O)Nc1ncnc2c1ncn2C1OC(CO)C(O)C1O)C(=O)O` (stereo not drawn) [N6-Threonylcarbamoyladenosine], with 7.6 min.
Same read-out and setting: then `O=C(O)CCCCCCC(=O)O` [Suberic_acid], with 9.6 min; and `CC(CCC(=O)O)C1CCC2C3C(O)CC4CC(O)CCC4(C)C3CC(O)C12C` (stereo not drawn) [Cholic acid], with 16.1 min.
The same measure, in the same setting: then `NC(Cc1c[nH]c2ccccc12)C(=O)O` (stereo not drawn) [tryptophan], with 6.3 min; and `CCN(CC)C(=O)Nc1ccc(OCC(O)CNC(C)(C)C)c(C(C)=O)c1` (stereo not drawn) [Celiprolol], with 9.97 min.
For the compound `C=C1C(O)C2(O)OCC34C(CC5C(C)=CC(=O)C(O)C5(C)C23)OC(=O)CC14` (stereo not drawn) [Ailanthone], the LC retention time in data set [2] was 7.89 min.
Same read-out and setting: then `CCOc1ccc2ccccc2c1C(=O)NC1C(=O)N2C1SC(C)(C)C2C(=O)O` (stereo not drawn) [Nafcillin], with 13.6 min.
Still for that read-out and setting: then `Oc1ccc(C(=C(Cl)Cl)c2ccc(O)cc2)cc1` [Bisphenol C-dichloride], with 10.5 min; and `CC12CCC3=C4CCC(=O)C=C4CCC3C1CCC2(O)CC#N` (stereo not drawn) [Dienogest], with 12.6 min.
Still for that read-out and setting: the value for `O=c1cc(-c2ccc(O)cc2)oc2cc(OC3OC(CO)C(O)C(O)C3OC3OCC(O)(CO)C3O)cc(O)c12` (stereo not drawn) [Apiin] was 10.3 min.
As to `CCCCCCCCc1ccc(O)cc1` [4-n-Octylphenol], the LC retention time in data set [2] was 16.9 min.
For `CCC(C)C1OC2(C=CC1C)CC1CC(CC=C(C)C(OC3CC(OC)C(OC4CC(OC)C(O)C(C)O4)C(C)O3)C(C)C=CC=C3COC4C(O)C(C)=CC(C(=O)O1)C34O)O2` (stereo not drawn) [Avermectin B1a (Abamectin)], in data set [2], the LC retention time is 18.1 min.
Same read-out and setting: the value for `CC(C)Nc1nc(Cl)nc(NC(C)C)n1` [Propazin] was 14 min.
Turning to `CCOc1ccccc1C(N)=O` [2-Ethoxybenzamide], in data set [2], the LC retention time is 10.1 min.
Same read-out and setting: the value for `OCCc1c[nH]c2ccccc12` [3-(2-Hydroxyethyl)indole] was 7 min; that for `CN(C)c1ccc(O)c2c1CC1CC3C(N(C)C)C(=O)C(C(N)=O)=C(O)C3(O)C(=O)C1=C2O` (stereo not drawn) [Minocyclin] was 8.3 min.
For `CCC(C=CC(C)C1CCC2C3CC=C4CC(O)CCC4(C)C3CCC12C)C(C)C` (stereo not drawn) [Stigmasterol], in data set [2], the LC retention time is 21.3 min.
The same measure, in the same setting: then `O=NNC1=NCCN1Cc1ccc(Cl)nc1` [Imidacloprid-nitrosoimine], with 7.84 min; and `CC(C)(C)c1cc(-n2nc3ccc(Cl)cc3n2)c(O)c(C(C)(C)C)c1` [UV-327], with 10.2 min; and `O=c1cc(-c2ccc(O)c(O)c2)oc2cc(OC3OC(CO)C(O)C(O)C3O)cc(O)c12` (stereo not drawn) [Luteolin 7-glucoside], with 9.71 min.
The same measure, in the same setting: the value for `CC(C=CC1=C(C)CCCC1(C)C)=CC=CC(C)=CC(=O)O` [9-cis-Retinoic acid] was 16 min; that for `COc1ccc2c3c1OC1C(OC4OC(C(=O)O)C(O)C(O)C4O)C=CC4C(C2)N(C)CCC341` (stereo not drawn) [codeine-6-glucuronide] was 11.4 min; that for `NC(=O)N=C1SCCN1Cc1ccc(Cl)nc1` [Thiacloprid amide] was 8.82 min.
On the same count and under the same terms, then `CCCCCCCCCCCCCCCC(=O)NCCO` [Palmitoylethanolamide], with 18.4 min; and `Cc1cc([N+](=O)[O-])c(N)c([N+](=O)[O-])c1C` [Pendimethalin-N-dealkylation], with 14.6 min.
Regarding `N#Cc1ccccc1C#N` [Phthalonitrile], in data set [2], the LC retention time is 8.45 min.
The same measure, in the same setting: then `Cc1ccc(OP(=O)(Oc2ccccc2)Oc2ccccc2)cc1` [Diphenyltolyl phosphate], with 16.3 min.
The same measure, in the same setting: then `COc1nc(C)nc(N)n1` [2-Amino-4-methoxy-6-methyl-1.3.5-triazine (MMT)], with 5.15 min; and `C1=Cc2ccccc2Nc2ccccc21` [Iminostilbene], with 14.5 min; and `CCC(C(N)=O)(C(N)=O)c1ccccc1` [PEMA], with 7.76 min.
Still for that read-out and setting: then `CC1OC(OCC2OC(Oc3c(-c4ccc(O)c(O)c4)oc4cc(O)cc(O)c4c3=O)C(O)C(O)C2O)C(O)C(O)C1O` (stereo not drawn) [Rutin], with 9.75 min; and `Nc1c(Cl)cccc1Cl` [2,6-Dichloroaniline], with 17.6 min.
Turning to `O=C(NC1CCCCC1)NC1CCCCC1` [Dicyclohexylurea], in data set [2], the LC retention time is 14 min.
The same measure, in the same setting: the value for `c1ccc2scnc2c1` [Benzothiazole] was 10.8 min; that for `CC1=NNC(=O)N(N=Cc2cccnc2)C1` [Pymetrozine] was 5.76 min.
Still for that read-out and setting: then `COCC(C)N(C(=O)CS(=O)(=O)O)c1c(C)csc1C` (stereo not drawn) [Dimethenamid-M 27 (ESA)], with 10.8 min.
Still for that read-out and setting: then `NC(=O)Cc1c[nH]c2ccccc12` [indoleacetamide], with 8 min; and `O=C(NCCN1CCOCC1)c1ccc(Cl)cc1` [Moclobemide], with 8.18 min; and `CCOP(=S)(OCC)SCCSCC` [Disulfoton], with 16 min.
In the case of `CC(C)(C)c1n[nH]c(=O)n(N)c1=O` [Metribuzin-diketo], in data set [2], the LC retention time was 9.82 min.
For `CC(=O)Nc1ccc(OC2OC(C(=O)O)C(O)C(O)C2O)cc1` (stereo not drawn) [acetaminophen_glucuronide], the LC retention time in data set [2] is 3.8 min.
On the same count and under the same terms, the value for `CCOP(=S)(OCC)SCCS(=O)CC` (stereo not drawn) [Disulfoton-sulfoxide] was 12.7 min; that for `CCOCCOC(=O)c1ccccc1C(=O)OCCOCC` [Bis(2-ethoxyethyl)phthalate] was 13.3 min.
Same read-out and setting: the value for `Cc1cc(C2CCCCC2)n(O)c(=O)c1` [Ciclopirox] was 14.9 min.
On the same count and under the same terms, then `C=CC1CN2CCC1CC2C(O)c1ccnc2ccc(OC)cc12` (stereo not drawn) [quinidine], with 9.5 min.
Turning to `Nc1nc2ccccc2[nH]1` [2-Aminobenzimidazole], the LC retention time in data set [2] was 6.08 min.
Same read-out and setting: then `CCN(CCO)c1cccc(C)c1` [2-(N-Ethyl-N-m-toluidino)ethanol], with 6.13 min; and `COCCOCCOC` [Diglyme], with 7.31 min.
Consider `C=CNc1nc(NC(C)(C)C)nc(SC)n1` [Terbutryn-desaturated], for which the LC retention time in data set [2] is 14.3 min.
With `C=CC1CNC(=S)O1` (stereo not drawn) [Goitrin], the LC retention time in data set [2] is 5 min.
Same read-out and setting: then `Nc1cc(Cl)cc(Cl)c1` [3,5-Dichloroaniline], with 17.6 min; and `COP(=O)(OC)OC` [Trimethyl phosphate], with 6.17 min.
Still for that read-out and setting: the value for `CCCC(C)(C)C(=O)Nc1ccc(Cl)cc1` [Monalide] was 15 min; that for `COP(=O)(OC)Oc1nc(Cl)c(Cl)cc1Cl` [Chlorpyrifos-methyl-oxon] was 13.7 min.
